Reference: patent publication US20100298141A1, “SUBSTITUTED PYRIDINE N-OXIDE HERBICIDES” (E. I. DU PONT DE NEMOURS AND COMPANY, priority 2007, published 2010)

Experiments:
velvetleaf = test: Test A pre-/postemergence greenhouse test; assay type: in vivo, Abutilon theophrasti; settings: for Plant response rating, Velvetleaf: 0 to 100 scale where 0 is no effect and 100 is complete control; for Velvetleaf plant response rating: 0 to 100 scale
Procedure, shortened: (§1)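 Two application timings were run side by side in the greenhouse. Before emergence, compound went onto the soil surface of loam–sand pots as a directed spray; after emergence, plants at 2–10 cm and the one- to two-leaf stage were treated. Visual injury versus controls was rated at approximately day ten.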

giant foxtail = test: Test A pre-/postemergence greenhouse test; assay type: in vivo, Setaria faberi; settings: for Plant response rating, Foxtail, Giant: 0 to 100 scale where 0 is no effect and 100 is complete control; for Foxtail, Giant plant response rating: 0 to 100 scale
Procedure, shortened: as §1

barnyardgrass [1] = test: Test C flooded paddy test; assay type: in vivo, Echinochloa crus-galli; settings: Flood
Source text: (§2) At time of treatment, test pots were flooded to 3 cm above the soil surface, treated by application of test compounds directly to the paddy water, and then maintained at that water depth for the duration of the test. Treated plants and controls were maintained in a greenhouse for 13 to 15 days, after which time all species were compared to controls and visually evaluated. […] A dash (-) response means no test result.

wheat = test: Test A pre-/postemergence greenhouse test; assay type: in vivo, Triticum aestivum; settings: for Plant response rating, Wheat: 0 to 100 scale where 0 is no effect and 100 is complete control; for Wheat plant response rating: 0 to 100 scale
Procedure, shortened: as §1

duck salad = test: Test C flooded paddy test; assay type: in vivo, Heteranthera limosa; settings: Flood
Source text: as §2

crabgrass = test: Test A pre-/postemergence greenhouse test; assay type: in vivo, Digitaria sanguinalis; settings: for Plant response rating, Crabgrass, Large: 0 to 100 scale where 0 is no effect and 100 is complete control; for Crabgrass, Large plant response rating: 0 to 100 scale
Procedure, shortened: as §1

morningglory = test: Test A pre-/postemergence greenhouse test; assay type: in vivo, Ipomoea spp.; settings: for Plant response rating, Morningglory: 0 to 100 scale where 0 is no effect and 100 is complete control; for Morningglory plant response rating: 0 to 100 scale
Procedure, shortened: as §1

redroot pigweed = test: Test A pre-/postemergence greenhouse test; assay type: in vivo, Amaranthus retroflexus; settings: for Plant response rating, Pigweed: 0 to 100 scale where 0 is no effect and 100 is complete control; for Pigweed plant response rating: 0 to 100 scale
Procedure, shortened: as §1

corn = test: Test A pre-/postemergence greenhouse test; assay type: in vivo, Zea mays; settings: for Plant response rating, Corn: 0 to 100 scale where 0 is no effect and 100 is complete control; for Corn plant response rating: 0 to 100 scale
Procedure, shortened: as §1

rice = test: Test C flooded paddy test; assay type: in vivo, Oryza sativa; settings: Flood
Source text: as §2

umbrella sedge = test: Test C flooded paddy test; assay type: in vivo, Cyperus difformis; settings: Flood
Source text: as §2

barnyardgrass [2] = test: Test A pre-/postemergence greenhouse test; assay type: in vivo, Echinochloa crus-galli; settings: for Plant response rating, Barnyardgrass: 0 to 100 scale where 0 is no effect and 100 is complete control; for Barnyardgrass plant response rating: 0 to 100 scale
Procedure, shortened: as §1

[3] = Postemergence, 500 g ai/ha, 0 is no effect, 100 is complete control
[4] = Preemergence, 125 g ai/ha, 0 no effect, 100 complete control
[5] = 62 g ai/ha, scale 0 to 100 (0 no effect, 100 complete control)
[6] = 250 g ai/ha, scale 0 to 100, 0 no effect, 100 complete control, 13 to 15 days
[7] = Postemergence, 125 g ai/ha, 0 is no effect, 100 is complete control
[8] = 31 g ai/ha, scale 0 to 100 (0 no effect, 100 complete control)
[9] = 62 g ai/ha, scale 0 to 100, 0 no effect, 100 complete control, 13 to 15 days
[10] = 125 g ai/ha, scale 0 to 100, 0 no effect, 100 complete control, 13 to 15 days
[11] = 250 g ai/ha, scale 0 to 100 (0 no effect, 100 complete control)

Cn1nc(C(F)(F)F)c(CS(=O)(=O)c2cccc[n+]2[O-])c1OCC(F)(F)C(F)(F)F [Compound 83]
Plant response rating, Velvetleaf (velvetleaf; Postemergence, 125 g ai/ha): 0
Velvetleaf plant response rating (velvetleaf; [3]): 40
Velvetleaf plant response rating (velvetleaf; [4]): 0
Plant response rating, Velvetleaf (velvetleaf; Preemergence, 500 g ai/ha): 60
Plant response rating, Foxtail, Giant (giant foxtail; Postemergence, 125 g ai/ha): 70
Foxtail, Giant plant response rating (giant foxtail; [3]): 80
Foxtail, Giant plant response rating (giant foxtail; [4]): 80
Plant response rating, Foxtail, Giant (giant foxtail; Preemergence, 500 g ai/ha): 100
Plant response rating, Barnyardgrass (barnyardgrass [1]; [5]): 0
Plant response rating, Barnyardgrass (barnyardgrass [1]; [6]): 0
Plant response rating, Wheat (wheat; Postemergence, 125 g ai/ha): 0
Wheat plant response rating (wheat; [3]): 10
Wheat plant response rating (wheat; [4]): 10
Plant response rating, Wheat (wheat; Preemergence, 500 g ai/ha): 60
Plant response rating, Ducksalad (duck salad; [5]): 0
Plant response rating, Ducksalad (duck salad; [6]): 0
Plant response rating, Crabgrass, Large (crabgrass; Postemergence, 125 g ai/ha): 30
Crabgrass, Large plant response rating (crabgrass; [3]): 80
Crabgrass, Large plant response rating (crabgrass; [4]): 50
Plant response rating, Crabgrass, Large (crabgrass; Preemergence, 500 g ai/ha): 80
Plant response rating, Morningglory (morningglory; Postemergence, 125 g ai/ha): 10
Morningglory plant response rating (morningglory; [3]): 30
Morningglory plant response rating (morningglory; [4]): 0
Plant response rating, Morningglory (morningglory; Preemergence, 500 g ai/ha): 70
Plant response rating, Pigweed (redroot pigweed; Postemergence, 125 g ai/ha): 10
Pigweed plant response rating (redroot pigweed; [3]): 20
Pigweed plant response rating (redroot pigweed; [4]): 10
Plant response rating, Pigweed (redroot pigweed; Preemergence, 500 g ai/ha): 100
Plant response rating, Corn (corn; Postemergence, 125 g ai/ha): 0
Corn plant response rating (corn; [3]): 0
Corn plant response rating (corn; [4]): 0
Plant response rating, Corn (corn; Preemergence, 500 g ai/ha): 40
Plant response rating, Rice (rice; [5]): 20
Plant response rating, Rice (rice; [6]): 20
Plant response rating, Sedge, Umbrella (umbrella sedge; [5]): 0
Plant response rating, Sedge, Umbrella (umbrella sedge; [6]): 0
Plant response rating, Barnyardgrass (barnyardgrass [2]; Postemergence, 125 g ai/ha): 50
Barnyardgrass plant response rating (barnyardgrass [2]; [3]): 70
Barnyardgrass plant response rating (barnyardgrass [2]; [4]): 80
Plant response rating, Barnyardgrass (barnyardgrass [2]; Preemergence, 500 g ai/ha): 100

CC(c1c(C(F)(F)F)nn(C)c1OC(F)F)S(=O)(=O)c1ccc(Br)c[n+]1[O-] (racemic) [Compound 23]
Velvetleaf plant response rating (velvetleaf; [7]): 0
Velvetleaf plant response rating (velvetleaf; [3]): 0
Velvetleaf plant response rating (velvetleaf; [4]): 0
Plant response rating, Velvetleaf (velvetleaf; Preemergence, 500 g ai/ha): 0
Foxtail, Giant plant response rating (giant foxtail; [7]): 0
Foxtail, Giant plant response rating (giant foxtail; [3]): 40
Foxtail, Giant plant response rating (giant foxtail; [4]): 30
Plant response rating, Foxtail, Giant (giant foxtail; Preemergence, 500 g ai/ha): 80
Plant response rating, Barnyardgrass (barnyardgrass [1]; [8]): 0
Plant response rating, Barnyardgrass (barnyardgrass [1]; [9]): 45
Plant response rating, Barnyardgrass (barnyardgrass [1]; [10]): 60
Plant response rating, Barnyardgrass (barnyardgrass [1]; [11]): 70
Wheat plant response rating (wheat; [7]): 0
Wheat plant response rating (wheat; [3]): 0
Wheat plant response rating (wheat; [4]): 0
Plant response rating, Wheat (wheat; Preemergence, 500 g ai/ha): 0
Plant response rating, Ducksalad (duck salad; [8]): 0
Plant response rating, Ducksalad (duck salad; [9]): 60
Plant response rating, Ducksalad (duck salad; [10]): 70
Plant response rating, Ducksalad (duck salad; [11]): 80
Crabgrass, Large plant response rating (crabgrass; [7]): 40
Crabgrass, Large plant response rating (crabgrass; [3]): 50
Crabgrass, Large plant response rating (crabgrass; [4]): 60
Plant response rating, Crabgrass, Large (crabgrass; Preemergence, 500 g ai/ha): 90
Morningglory plant response rating (morningglory; [7]): 0
Morningglory plant response rating (morningglory; [3]): 0
Morningglory plant response rating (morningglory; [4]): 0
Plant response rating, Morningglory (morningglory; Preemergence, 500 g ai/ha): 0
Pigweed plant response rating (redroot pigweed; [7]): 0
Pigweed plant response rating (redroot pigweed; [3]): 50
Pigweed plant response rating (redroot pigweed; [4]): 100
Plant response rating, Pigweed (redroot pigweed; Preemergence, 500 g ai/ha): 100
Corn plant response rating (corn; [7]): 0
Corn plant response rating (corn; [3]): 0
Corn plant response rating (corn; [4]): 0
Plant response rating, Corn (corn; Preemergence, 500 g ai/ha): 0
Plant response rating, Rice (rice; [8]): 0
Plant response rating, Rice (rice; [9]): 70
Plant response rating, Rice (rice; [10]): 70
Plant response rating, Rice (rice; [11]): 70
Plant response rating, Sedge, Umbrella (umbrella sedge; [8]): 0
Plant response rating, Sedge, Umbrella (umbrella sedge; [9]): 55
Plant response rating, Sedge, Umbrella (umbrella sedge; [10]): 75
Plant response rating, Sedge, Umbrella (umbrella sedge; [6]): 75
Barnyardgrass plant response rating (barnyardgrass [2]; [7]): 0
Barnyardgrass plant response rating (barnyardgrass [2]; [3]): 0
Barnyardgrass plant response rating (barnyardgrass [2]; [4]): 40
Plant response rating, Barnyardgrass (barnyardgrass [2]; Preemergence, 500 g ai/ha): 90
